# Test results from patent US20260216197A1, “WRN HELICASE INHIBITOR” (SUZHOU PUHE BIOPHARMA CO., LTD., priority 2022, published 2026).
# Like-named read-outs stand apart in the source and are kept apart here.
# What was measured:
# WRN helicase = WRN helicase (Homo sapiens, UniProt Q14191); assay: WRN helicase hydrolysis/unwinding of double-stranded DNA (fluorescence); assay type: biochemical
# How it was run: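 Human WRN helicase preincubated 30 min in the dark with compound (top final concentration 10 μM, 4-fold dilutions). Reaction started with 19-bp double-stranded DNA labelled 3′-TAMRA/5′-BHQ2, run 60 min at room temperature; IC50 from fluorescence change (Ex530/Em590) versus DMSO blank.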
# [1] = Caco-2 membrane permeability assay; assay type: in vitro ADME; settings: human; Caco-2, apical pH 6.5, basolateral pH 7.4
# Description: The membrane permeability of the molecule of the present disclosure was evaluated. Samples were analyzed by LC-MS to estimate the apparent permeability coefficient (Papp) of the compounds across Caco-2 cell monolayers, with the apical chamber at pH 6.5 and the basolateral chamber at pH 7.4. Active efflux transport of compounds can be blocked using inhibitors of P-gp efflux transporter, BCRP, and MRP2 (50 μM quinidine, 30 μM benzbromarone, and 20 μM sulfasalazine). The data were used to determine apparent permeability (Papp).
# [formula] • where VA is the volume of the receptor pore (in mL), Area is the surface area of the membrane (0.143 cm^2 for Transwell-96 well permeable scaffolds), and time is the total transport time (in seconds).
# [2] = system: MSI-H colorectal cancer SW48 cell line; assay: 2D anti-proliferative activity, MSI-H SW48 cells (CTG, 5 days); assay type: cell-based; settings: for inhibition at 38.15 pM: 0.038146973 nM; for inhibition at 0.000152588 µM: 0.152587891 nM; for inhibition at 0.000610352 µM: 0.610351563 nM; for inhibition at 0.00244141 µM: 2.44140625 nM; for inhibition at 0.00976562 µM: 9.765625 nM; for inhibition at 0.0390625 µM: 39.0625 nM; for inhibition at 0.15625 µM: 156.25 nM; for inhibition at 0.625 µM: 625 nM; for inhibition at […]: 2500 nM; for inhibition at 10 µM: 10000 nM
# How it was run: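 SW48 cells in RPMI 1640/10% FBS were exposed to serially varied compound concentrations for 5 days at 37 °C, 5% CO2. Viability was read as ATP-dependent CellTiter-Glo luminescence after 30 min.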
# [3] = system: SW 48 (MSI-H) colorectal cancer cells; assay: In vivo pharmacodynamic assay, SW48 xenograft in nude mice; set-up: species or system BALB/c nude mice; settings: 50 mg/kg, QD, oral
# Description: In vivo pharmacodynamic assay in BALB/c nude mice. Details are as follows:
# SW 48 (MSI-H) colorectal cancer cells were cultured (L15 medium with 10% fetal bovine serum), and then inoculated into 6-8-week old female BALB/c nude mice (weighing about 20 g), wherein all mice were inoculated subcutaneously. The mice were cultured in an SPF-grade experimental environment, and all mice had free access to commercially certified standard diets. When the average tumor volume of the mice grew to about 150 mm^3, the test compound was orally administered daily. The dosage was as follows: blank group vehicle (10% HP-β-CD aqueous solution, pH-7). The dosage of the administration group was 120 mg/kg, 50 mg/kg, or 20 mg/kg, once a day. The tumor volume was measured with a two-dimensional caliper three times a week, and the animals were weighed every day. […] The tumor volume was calculated using the formula: V=½a*b^2, where a represents the long diameter of the tumor, and b represents the short diameter of the tumor.
# [4] = Liver microsome stability test; assay type: in vitro ADME; settings: human liver microsomes 0.5 mg/mL, compound 1 μM, NADPH 1 mM, 60 minutes
# [5] = Homo sapiens, read-out: Average value/ Inhibition rate
# [6] = Homo sapiens, read-out: Test 1/ Inhibition rate
# [7] = Homo sapiens, read-out: Test 2/ Inhibition rate
# Chain of WRN helicase (Q14191 whole entry): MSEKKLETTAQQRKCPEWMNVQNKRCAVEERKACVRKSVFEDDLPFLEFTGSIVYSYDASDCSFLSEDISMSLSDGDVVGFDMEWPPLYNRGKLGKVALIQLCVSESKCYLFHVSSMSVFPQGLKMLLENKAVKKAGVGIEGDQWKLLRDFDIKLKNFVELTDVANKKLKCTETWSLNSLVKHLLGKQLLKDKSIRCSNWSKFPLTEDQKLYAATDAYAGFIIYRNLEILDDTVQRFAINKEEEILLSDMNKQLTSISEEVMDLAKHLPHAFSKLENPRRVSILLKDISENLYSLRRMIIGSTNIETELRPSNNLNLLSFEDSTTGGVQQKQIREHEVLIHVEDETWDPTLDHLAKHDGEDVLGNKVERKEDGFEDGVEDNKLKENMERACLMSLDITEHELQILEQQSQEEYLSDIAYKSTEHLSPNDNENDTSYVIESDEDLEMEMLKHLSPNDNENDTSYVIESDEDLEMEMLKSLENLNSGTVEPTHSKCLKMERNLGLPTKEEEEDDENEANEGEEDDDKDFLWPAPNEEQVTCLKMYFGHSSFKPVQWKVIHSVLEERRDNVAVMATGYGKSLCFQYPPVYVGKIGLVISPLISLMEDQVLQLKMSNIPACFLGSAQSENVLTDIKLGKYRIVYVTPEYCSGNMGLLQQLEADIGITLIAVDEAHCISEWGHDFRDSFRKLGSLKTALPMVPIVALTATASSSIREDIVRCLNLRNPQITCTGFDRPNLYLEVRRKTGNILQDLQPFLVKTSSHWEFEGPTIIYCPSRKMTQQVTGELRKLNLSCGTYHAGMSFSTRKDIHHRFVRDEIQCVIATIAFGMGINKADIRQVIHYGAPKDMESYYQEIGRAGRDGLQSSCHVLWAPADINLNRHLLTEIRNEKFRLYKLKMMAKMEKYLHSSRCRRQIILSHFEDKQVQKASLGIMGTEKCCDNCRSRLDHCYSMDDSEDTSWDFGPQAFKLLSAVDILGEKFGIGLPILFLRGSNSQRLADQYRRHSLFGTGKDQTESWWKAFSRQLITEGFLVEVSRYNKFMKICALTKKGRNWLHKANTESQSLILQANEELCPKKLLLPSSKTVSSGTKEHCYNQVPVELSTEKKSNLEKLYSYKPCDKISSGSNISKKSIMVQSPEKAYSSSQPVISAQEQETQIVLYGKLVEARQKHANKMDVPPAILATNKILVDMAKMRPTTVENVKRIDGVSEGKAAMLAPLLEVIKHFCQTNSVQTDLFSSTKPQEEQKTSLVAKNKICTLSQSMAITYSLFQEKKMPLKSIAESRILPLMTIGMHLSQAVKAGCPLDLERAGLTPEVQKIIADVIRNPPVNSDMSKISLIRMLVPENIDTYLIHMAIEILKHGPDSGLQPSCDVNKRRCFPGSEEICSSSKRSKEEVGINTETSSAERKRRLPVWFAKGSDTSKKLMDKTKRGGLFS
smiles,measurement,setting,value
CCc1c(N2CCN(C(=O)c3ncnc(C)c3O)CC2)c(=O)n2nc(C3=CCOCC3)nc2n1CC(=O)Nc1ccc(C(F)(F)F)c2ccoc12 [Compound H22],IC50,WRN helicase,1.4 nM
same,Papp A→B,[1],3.2 ×10⁻⁶ cm/s
same,Papp B→A,[1],21 ×10⁻⁶ cm/s
same,inhibitory activity on SW48 cells,[2]; 39 nM,high inhibitory activity
same,inhibition at 38.15 pM,[2]; [5],-4.19%
same,inhibition at 38.15 pM,[2]; [6],-1.57%
same,inhibition at 38.15 pM,[2]; [7],-6.81%
same,inhibition at 0.000152588 µM,[2]; [5],0.206%
same,inhibition at 0.000152588 µM,[2]; [6],-0.184%
same,inhibition at 0.000152588 µM,[2]; [7],0.596%
same,inhibition at 0.000610352 µM,[2]; [5],-2.48%
same,inhibition at 0.000610352 µM,[2]; [6],-1.27%
same,inhibition at 0.000610352 µM,[2]; [7],-3.7%
same,inhibition at 0.00244141 µM,[2]; [5],-0.303%
same,inhibition at 0.00244141 µM,[2]; [6],2.69%
same,inhibition at 0.00244141 µM,[2]; [7],-3.3%
same,inhibition at 0.00976562 µM,[2]; [5],-6.3%
same,inhibition at 0.00976562 µM,[2]; [6],-5.49%
same,inhibition at 0.00976562 µM,[2]; [7],-7.12%
same,inhibition at 0.0390625 µM,[2]; [5],29.2%
same,inhibition at 0.0390625 µM,[2]; [6],28.4%
same,inhibition at 0.0390625 µM,[2]; [7],30%
same,inhibition at 0.15625 µM,[2]; [5],98%
same,inhibition at 0.15625 µM,[2]; [6],98.4%
same,inhibition at 0.15625 µM,[2]; [7],97.6%
same,inhibition at 0.625 µM,[2]; [5],98.1%
same,inhibition at 0.625 µM,[2]; [6],98.3%
same,inhibition at 0.625 µM,[2]; [7],97.9%
same,inhibition at […],[2]; [5],99.6%
same,inhibition at […],[2]; [6],99.9%
same,inhibition at […],[2]; [7],99.2%
same,inhibition at 10 µM,[2]; [5],101%
same,inhibition at 10 µM,[2]; [6],102%
same,inhibition at 10 µM,[2]; [7],101%
same,IC50,"[2]; Homo sapiens, 120 h, 5 days",47 nM
same,TGI,[3],104%
same,Tumor volume (mm^3)-D 1,[3]; day 1,162 mm^3
same,Tumor volume (mm^3)-D 21,[3]; day 21,89 mm^3
same,CLint scaled at 1 μM,[4],< 6.8 mL/min/kg
same,microsomal CLint at 1 μM,[4]; read-out: Human Clint μL/min/mg Protein,< 5.4 µL/min/mg
